Tested on: wild type C. elegans
Assay: Pheromone-induced dauer formation in wild type C. elegans in the presence of DHCA
Type: in vivo
Details: wild type (N2) C. elegans treated by pheromone, pheromone alone around 20% dauer
Experimental: FIG. 5 is a bar graph showing that dihydrocaffeic acid (DHCA) is the ligand for DCAR-1 GPCR. DHCA is the food signal that competes with the dauer-inducing pheromone to suppress dauer formation. (*P<0.01, t-test, N2 treated with 0 nM DHCA compared to N2 treated with 25 nM DHCA and N2 treated with 25 nM DHCA compared to N2 treated with 100 nM DHCA. ns, no statistical significant difference.) Recovery of dauer larvae requires the presence of food. G protein-coupled receptors (GPCRs) detect molecules such as food odors and activate internal signal transduction pathways. We identified a GPCR, DCAR-1, which is involved in detection of food signals in C. elegans. […] The recovery percentage of daf-2 and daf-7 mutant dauer larvae decreased by 25% when dcar-1 is mutated. Dihydrocaffeic acid (DHCA) is the ligand for DCAR-1. […] When wild type C. elegans was treated by pheromone, around 20% of animals entered dauer. However, in the presence of 25 nM DHCA, the percentage of dauer was decreased to 5%. […] Thus, DCAR-1 inhibitors act to block detection of foods signals by infective nematode parasites and to suppress the growth of parasites to adults.

Question: `O=C(O)CCc1ccc(O)c(O)c1` [DHCA, Dihydrocaffeic acid] was tested. Which percentage of dauer (25 nM DHCA) did it give?
Answer: Its percentage of dauer is 5%.

Question: What about the percentage of dauer (100 nM DHCA) of the same compound?
Answer: Its percentage of dauer is “none of animals formed dauer”.
